Experimental data as given in patent US20220280679A1, “Prophylactic Gel Compositions and Use as Barriers to Bacterial and Viral Colonization” (Innovation Chemical and Enviromental Technologies, Inc., priority 2021, published 2022).
Read-outs that look alike come from different tables or passages of the source.

Assays:
Format in all cases: cell-based
[1] = tested on: porcine vaginal mucosa; experiment: Preliminary histology score, porcine tissue (PMM)
Source text: (§1) Active compositions are compared against a commercial control (UT20 58-164-4), a non-irritative control (PBS, phosphate buffered saline), a mild irritant control (1% TX-100, Triton X-100 surfactant).
(§2) The histology reflects a combination of the limits of each tissue models in addition to the reaction to variously added agents. SDS is clearly toxic to the tissue models and the addition of TX100 to the porcine vaginal mucosa removed the ability to assess unambiguously the effect of LPS with a surface active agent such as TX100.

[2] = tested on: tissue explants; experiment: MTT biocompatibility assay, relative viability of tissue explants
Description: Biocompatibility assays were performed by PerfectUs Biomed group (formerly Extherid) on the samples of IC-2B2 samples from Example 2, Table 2B.2
MTT assays returns relative viability of tissue through calorimetric analysis. Results are reported as percent viability compared to the non-irritative PBS control, which represents 100% viability for each of the four test conditions.
Because 100% viability for each trial is represented by the colorimetric average of the 3 explants treated with PBS. viability greater than 100% indicates UT20 formulations impart cytoprotective effects compared to the neutral PBS control.

[3] = tested on: porcine nasal tissue; experiment: Histology scoring on porcine nasal mucosa
Description: A panel of controls for preliminary model development was assessed for biocompatibility properties on Porcine nasal tissue via MTT, and ELISA Assays.
In Table 16, histology scoring of NS A (166A) and NS B (166B) type compositions on porcine nasal mucosa. Sample 165B is a commercial control. It is of some interest that the treatments appear to result in a reduced response with or without the addition of LPS. The detergents SDS and TX100 produce a maximal response while the LPS produces a range of responses. […] The blinded participation of the Histology expert lends additional strength to the data.

[4] = tested on: human bladder tissue explants; experiment: Preliminary histology score, ex-vivo human bladder tissue (HBT)
Source text: as §1, §2

In the case of `CCCCCCCCCCCCOS(=O)(=O)[O-].[Na+]` [SDS], the “PMM Qualitative Score (histology)” value [1] is reported as 4+, the “tissue viability (MTT), irritant controls” value [2] is reported as “decreases in tissue viability” and the “Ordinal score (histology)” value [3] is reported as 4. For the same compound, the “HBT Qualitative Score (histology)” value [4] was 4+.

Triton X-100 [TX100] was tested, and the “histology observation, porcine vaginal mucosa” value ([1]; LPS combined with TX100) was “lost normal structure entirely”, the “tissue viability (MTT), irritant controls” value ([2]; all test conditions) was “decreases in tissue viability” and the “Ordinal score (histology)” value ([3]; control agent alone) was 3. For the same compound, the “histology observation, bladder sections” value [4] was “mild cell loss and submucosal edema”.

In the case of lipopolysaccharide [LPS], the “Ordinal score (histology)” value ([3]; control agent alone) is reported as 1 and the “histology observation, bladder sections” value ([4]; with addition of LPS) is reported as “reactive damage to the bladder sections with a loss of cells on the surface of the section”.
